Parameters: species or system Yucatan pigs
Conditions: pig, in vivo
From the text: Poly(lactic-co-glycolic acid) (PLGA) implants comprising bimatoprost were implanted into the eyes of 3 month old Yucatan pigs (6 pigs total). Prior to delivering the implant to either the sclera (fully intrascleral; “intrascleral arm”) or partially in the limbus (one end residing in the limbus, one end residing in the sclera; “limbal arm”), the pigs were placed under general anesthesia, and a lid speculum was inserted. Intraocular pressure was checked, and corneal thickness was checked in 4 quadrants, and centrally, using ultrasonic corneal pachymetry. The lid speculum was then removed.
In each of the 6 pigs, the right eye received one implant, and the left eye received 2 implants. In order to accomplish this, betadine drops were placed onto the left eyes of each pig and an eyelid speculum is inserted. A surgical operating microscope was positioned to visualize the implantation. Each eye was infraducted with a traction suture. A small conjunctival peritomy was created, and the sclera was marked with gentian violet-tipped calipers 2 mm posterior to the limbus. 10-0 nylon marking sutures were then placed 3-4 mm posterior to the limbus. A 27 G needle on a TB syringe was used to preform a tunnel for implantation toward the anterior chamber (group 1) or across the sclera (group 2). The implant was then deployed into the preformed tunnel, and the traction suture was released. Polymyxin-trimethoprim and tobramycin-dexamethasone drops were then placed in each eye, and the speculum was removed. The procedure was then repeated with two implants in each pig's […] eye.
At month 1, the pigs were examined, and one pig from each group was euthanized and the eyes were removed and placed in formalin for pathology. Aqueous samples from each of the 6 pigs were collected and analyzed for the presence of bimatoprost and Bimatoprost Acid (a metabolite of bimatoprost). At weeks 3, 10, and 20, the remaining pigs in each group were examined for redness, inflammation, eye rubbing, miosis, and squinting, as above.
At month 3, the remaining pigs were examined and aqueous samples collected (as above), and one of the remaining pigs from each group was euthanized (as above) for pathology.
The histopathology of the eyes is evaluated, as is the concentration of bimatoprost, and metabolites thereof, in the anterior chambers. The concentrations of bimatoprost and the bimatoprost acid metabolite in the anterior chamber of each pig's eyes are shown in FIGS. 24A-24D, at the time points described above. FIG. 24A and FIG. 24B show the concentrations of bimatoprost and the bimatoprost acid metabolite, respectively, for the three pigs (A1, A2, and A6) implanted with the intrascleral implant. […]

| Structure (SMILES) | Bimatoprost Acid concentration, limbal arm compared to intrascleral arm | presence of Bimatoprost Acid (metabolite of bimatoprost) in aqueous samples | bimatoprost aqueous levels, limbal arm compared to intrascleral arm | presence of bimatoprost in the aqueous humor |
| --- | --- | --- | --- | --- |
| O=C(O)CCC/C=C\C[C@@H]1[C@@H](/C=C/[C@@H](O)CCc2ccccc2)[C@H](O)C[C@@H]1O [Bimatoprost Acid] | higher concentration in the limbal arm | detectable |  |  |
| CCNC(=O)CCC/C=C\C[C@@H]1[C@@H](/C=C/[C@@H](O)CCc2ccccc2)[C@H](O)C[C@@H]1O [bimatoprost] |  |  | both higher and more sustained aqueous levels in the limbal arm | detectable |
